Where two headings read alike, the source gives them in different places.
Test system: HIV-1 (NL4-3 strain)
Test: Assay for inhibition of HIV replication (ViKinG; infected MT4-GFP cells)
Format: cell-based
Experimental: Assay for inhibition of HIV replication
MT4-GFP cells (250,000 cells/ml) were bulk-infected with HIV-1 (NL4-3 strain) at low multiplicity of infection (MOI) in RPMI+10% FBS for 24 hours. […] Test compounds were serial-diluted in DMSO on ECHO. The infected MT4-GFP cells were added to a 384-well poly-D-lysine coated black plate with clear bottom in which the diluted test compounds were placed. The cells were seeded at 8,000 cells per well and the final DMSO concentration was 0.4%. The infected cells (Green GFP cells) were quantified at both 24 and 48 hours post incubation using Acumen eX3. Viral reproductive ratio (R0) was determined using the number of infected cells at 48 hours divided by the number of infected cells at 24 hours. Percent viral growth inhibition was calculated by [1−(R−Rtripledrug)/(RDMSO−Rtripledrug)]*100. Compound potency IP or IC50 was determined by a 4-parameter dose response curve analysis.

[1] = Human immunodeficiency virus 1, NL43, MT4-GFP cells infected with HIV-1 NL4-3, 0% normal human serum (NHS), read-out: ViKinG IP (nM) with 0% NHS
[2] = Human immunodeficiency virus 1, NL43, MT4-GFP cells infected with HIV-1 NL4-3, 100% normal human serum (NHS), read-out: ViKinG IP (nM) with 100% NHS
[3] = MT4-GFP cells infected with HIV-1 NL4-3, 0% normal human serum (NHS), read-out: ViKinG IP (nM) with 0% NHS
[4] = MT4-GFP cells infected with HIV-1 NL4-3, 100% normal human serum (NHS), read-out: ViKinG IP (nM) with 100% NHS
[5] = Human immunodeficiency virus 1, NL43, MT4-GFP cells infected with HIV-1 NL4-3, 10% normal human serum (NHS), read-out: ViKinG IP (nM) with 10% NHS
[6] = MT4-GFP cells infected with HIV-1 NL4-3, 10% normal human serum (NHS), read-out: ViKinG IP (nM) with 10% NHS

CCN1C(=O)c2c(O)c(=O)c(-c3nnc(Cc4ccc(F)cc4F)s3)cn2N(C)C12CCC(c1nc(C)no1)CC2 (stereo not drawn) [Compound 46]
IC50 [1]: 6.78 nM | IC50 [2]: 139 nM

CCN1C(=O)c2c(O)c(=O)c(-c3nnc(Cc4ccc(F)cc4F)s3)cn2N(C)C12CCC(c1nc(C)no1)CC2 (stereo not drawn) [Compound 47]
IC50 [3]: 11.6 nM | IC50 [4]: 186 nM

CCN1C(=O)c2c(O)c(=O)c(-c3nnc(Cc4ccc(F)cc4F)s3)cn2N(C)C12CCC(C(F)(F)F)CC2 (stereo not drawn) [Compound 49]
IC50 [1]: 19.8 nM | IC50 [4]: 406 nM

CCN1C(=O)c2c(O)c(=O)c(-c3nnc(Cc4ccc(F)cc4F)s3)cn2N(C)C12CCC(C(F)(F)F)CC2 (stereo not drawn) [Compound 50]
IC50 [3]: 25.6 nM | IC50 [4]: 5380 nM

CCN1C(=O)c2c(O)c(=O)c(-c3nnc(Cc4ccc(F)cc4F)s3)cn2N(C)C12CCC(O)CC2 (stereo not drawn) [Compound 51]
IC50 [2]: 204 nM | IC50 [3]: 8.5 nM

CCN1C(=O)c2c(O)c(=O)c(-c3nnc(Cc4ccc(F)cc4F)s3)cn2N(C)C12CCC(O)CC2 (stereo not drawn) [Compound 52]
IC50 [3]: 2.33 nM | IC50 [4]: 130 nM

CCN1C(=O)c2c(O)c(=O)c(-c3nnc(Cc4ccc(F)cc4F)s3)cn2N(C)C12CCC(Oc1ccccc1)CC2 (stereo not drawn) [Compound 53]
IC50 [2]: 1030 nM | IC50 [3]: 15.7 nM

CCN1C(=O)c2c(O)c(=O)c(-c3nnc(Cc4ccc(F)cc4F)s3)cn2N(C)C12CCC(Oc1ccccc1)CC2 (stereo not drawn) [Compound 54]
IC50 [3]: 82.8 nM | IC50 [4]: 1470 nM

CCN1C(=O)c2c(O)c(=O)c(-c3nnc(Cc4ccc(F)cc4F)s3)cn2N(C)C12CCC(CO)CC2 (stereo not drawn) [Compound 55]
IC50 [1]: 6.46 nM | IC50 [2]: 279 nM

CCN1C(=O)c2c(O)c(=O)c(-c3nnc(Cc4ccc(F)cc4F)s3)cn2N(C)C12CCC(F)(F)CC2 [Compound 56]
IC50 [1]: 12 nM | IC50 [2]: 1980 nM

CCc1noc(C2CCC3(CC2)N(CC)C(=O)c2c(O)c(=O)c(-c4nnc(Cc5ccc(F)cc5F)s4)cn2N3C)n1 (stereo not drawn) [Compound 57]
IC50 [1]: 18.1 nM | IC50 [2]: 145 nM

CCc1noc(C2CCC3(CC2)N(CC)C(=O)c2c(O)c(=O)c(-c4nnc(Cc5ccc(F)cc5F)s4)cn2N3C)n1 (stereo not drawn) [Compound 58]
IC50 [3]: 14.1 nM | IC50 [4]: 228 nM

CCN1C(=O)c2c(O)c(=O)c(-c3nnc(Cc4ccc(F)cc4F)s3)cn2N(C)C12CCC(C)(OC)CC2 (stereo not drawn) [Compound 59]
IC50 [1]: 8.66 nM | IC50 [2]: 124 nM

CCCOC1CCC2(CC1)N(CC)C(=O)c1c(O)c(=O)c(-c3nnc(Cc4ccc(F)cc4F)s3)cn1N2C (stereo not drawn) [Compound 60]
IC50 [2]: 226 nM | IC50 [3]: 10.8 nM

CCCOC1CCC2(CC1)N(CC)C(=O)c1c(O)c(=O)c(-c3nnc(Cc4ccc(F)cc4F)s3)cn1N2C (stereo not drawn) [Compound 61]
IC50 [3]: 23.8 nM | IC50 [4]: 221 nM

CCN1C(=O)c2c(O)c(=O)c(-c3nnc(Cc4ccc(F)cc4F)s3)cn2N(C)C12CCC(OC(C)C)CC2 (stereo not drawn) [Compound 62]
IC50 [3]: 8.11 nM | IC50 [4]: 159 nM

CCN1C(=O)c2c(O)c(=O)c(-c3nnc(Cc4ccc(F)cc4F)s3)cn2N(C)C12CCC(OC(C)C)CC2 (stereo not drawn) [Compound 63]
IC50 [3]: 27.6 nM | IC50 [4]: 391 nM

CCN1C(=O)c2c(O)c(=O)c(-c3nnc(Cc4ccc(F)cc4F)s3)cn2N(C)C12CCC(OCCOC)CC2 (stereo not drawn) [Compound 64]
IC50 [1]: 3.3 nM | IC50 [2]: 77.2 nM

CCN1C(=O)c2c(O)c(=O)c(-c3nnc(Cc4ccc(F)cc4F)s3)cn2N(C)C12CCC(OCCOC)CC2 (stereo not drawn) [Compound 65]
IC50 [3]: 6.27 nM | IC50 [4]: 123 nM

CCN1C(=O)c2c(O)c(=O)c(-c3nnc(Cc4ccc(F)cc4F)s3)cn2N(C)C12CCC(OCCOCCOC)CC2 (stereo not drawn) [Compound 66]
IC50 [1]: 12 nM | IC50 [2]: 93.9 nM

CCN1C(=O)c2c(O)c(=O)c(-c3nnc(Cc4ccc(F)cc4F)s3)cn2N(C)C12CCC(OCCOCCOC)CC2 (stereo not drawn) [Compound 67]
IC50 [3]: 12.5 nM | IC50 [4]: 160 nM

CN1C(=O)c2c(O)c(=O)c(-c3nnc(Cc4ccc(F)cc4F)s3)cn2N(C)C12CCC(OC(=O)C(Cl)Cl)CC2 (stereo not drawn) [Compound 68]
IC50 [5]: 10.5 nM

CN1C(=O)c2c(O)c(=O)c(-c3nnc(Cc4ccc(F)cc4F)s3)cn2N(C)C12CCC(C)(O)CC2 (stereo not drawn) [Compound 69]
IC50 [3]: 22.6 nM | IC50 [6]: 84.7 nM

CN1C(=O)c2c(O)c(=O)c(-c3nnc(Cc4ccc(F)cc4F)s3)cn2N(C)C12CCC(C)(O)CC2 (stereo not drawn) [Compound 70]
IC50 [3]: 9.9 nM | IC50 [6]: 39.1 nM

COC1(C)CCC2(CC1)N(C)C(=O)c1c(O)c(=O)c(-c3nnc(Cc4ccc(F)cc4F)s3)cn1N2C (stereo not drawn) [Compound 72]
IC50 [1]: 6.07 nM | IC50 [5]: 9.93 nM

COC1(C)CCC2(CC1)N(C)C(=O)c1c(O)c(=O)c(-c3nnc(Cc4ccc(F)cc4F)s3)cn1N2C (stereo not drawn) [Compound 73]
IC50 [3]: 7.04 nM | IC50 [6]: 11.9 nM

CN1C(=O)c2c(O)c(=O)c(-c3nnc(Cc4ccc(F)cc4F)s3)cn2N(C)C12CCC(CO)CC2 (stereo not drawn) [Compound 74]
IC50 [1]: 6.84 nM | IC50 [5]: 23.6 nM

CN1C(=O)c2c(O)c(=O)c(-c3nnc(Cc4ccc(F)cc4F)s3)cn2N(C)C12CCC(N)CC2 (stereo not drawn) [Compound 75]
IC50 [1]: 5.02 nM | IC50 [5]: 35.3 nM

CN1C(=O)c2c(O)c(=O)c(-c3nnc(Cc4ccc(F)cc4F)s3)cn2N(C)C12CCCCCC2 [Compound 76]
IC50 [1]: 17.3 nM | IC50 [5]: 23.6 nM | IC50 [2]: 761 nM

CN1C(=O)c2c(O)c(=O)c(-c3nnc(Cc4ccc(F)cc4F)s3)cn2N(C)C12C[C@H]1CC(O)C[C@H]1C2 (stereo partly drawn) [Compound 77]
IC50 [1]: 12.8 nM | IC50 [5]: 58 nM

CN1C(=O)c2c(O)c(=O)c(-c3nnc(Cc4ccc(F)cc4F)s3)cn2N(C)C12CCC(O)C2 (stereo not drawn) [Compound 79]
IC50 [1]: 3.11 nM | IC50 [5]: 40.9 nM

CN1C(=O)c2c(O)c(=O)c(-c3nnc(Cc4ccc(F)cc4F)s3)cn2N(C)C12CCC1C(=O)NC(=O)C1C2 (stereo not drawn) [Compound 80]
IC50 [1]: 50.1 nM | IC50 [2]: 915 nM

CN1C(=O)c2c(O)c(=O)c(-c3nnc(Cc4ccc(F)cc4F)s3)cn2N(C)C12CCC1C(=O)NC(=O)C1C2 (stereo not drawn) [Compound 81]
IC50 [3]: 37.5 nM | IC50 [4]: 1610 nM

CC(=O)NC1CCC2(CC1)N(C)C(=O)c1c(O)c(=O)c(-c3nnc(Cc4ccc(F)cc4F)s3)cn1N2C (stereo not drawn) [Compound 82]
IC50 [1]: 63.7 nM | IC50 [2]: 2560 nM

CN1C(=O)c2c(O)c(=O)c(-c3nnc(Cc4ccc(F)cc4F)s3)cn2N(C)C12CCC(C)(C(=O)O)CC2 (stereo not drawn) [Compound 83]
IC50 [3]: 151 nM | IC50 [6]: 755 nM

CN1C(=O)c2c(O)c(=O)c(-c3nnc(Cc4ccc(F)cc4F)s3)cn2N(C)C12CCC(C)(C(=O)O)CC2 (stereo not drawn) [Compound 84]
IC50 [3]: 51.5 nM | IC50 [6]: 209 nM

CN1C(=O)c2c(O)c(=O)c(-c3nnc(Cc4ccc(F)cc4F)s3)cn2N(C)C12CCC(C)(CO)CC2 (stereo not drawn) [Compound 85]
IC50 [1]: 12.5 nM | IC50 [2]: 150 nM | IC50 [6]: 29.5 nM

CN1C(=O)c2c(O)c(=O)c(-c3nnc(Cc4ccc(F)cc4F)s3)cn2N(C)C12CCC(C)(CO)CC2 (stereo not drawn) [Compound 86]
IC50 [3]: 6.34 nM | IC50 [6]: 94.3 nM | IC50 [4]: 185 nM

CCN1C(=O)c2c(O)c(=O)c(-c3nnc(Cc4ccc(F)cc4)s3)cn2N(C)C12CCC(P(=O)(O)O)C2 (stereo not drawn) [Compound 87]
IC50 [1]: 626 nM | IC50 [2]: 2890 nM

CN1C(=O)c2c(O)c(=O)c(-c3nnc(Cc4ccc(F)cc4F)s3)cn2N(C)C12CCC(C(=O)O)CC2 (stereo not drawn) [Compound 88]
IC50 [3]: 1280 nM | IC50 [6]: 4200 nM

CN1C(=O)c2c(O)c(=O)c(-c3nnc(Cc4ccc(F)cc4F)s3)cn2N(C)C12CCC(C(=O)O)CC2 (stereo not drawn) [Compound 89]
IC50 [3]: 44.9 nM | IC50 [6]: 322 nM

CCN1C(=O)c2c(O)c(=O)c(-c3nnc(Cc4ccc(F)cc4)s3)cn2N(C)C12CCC(C(=O)N(C)C)CC2 (stereo not drawn) [Compound 93]
IC50 [6]: 255 nM

CCN1C(=O)c2c(O)c(=O)c(-c3nnc(Cc4ccc(F)cc4)s3)cn2N(C)C12CCC(C(=O)N(C)C)CC2 (stereo not drawn) [Compound 94]
IC50 [2]: 130 nM | IC50 [6]: 9.83 nM

CCN1C(=O)c2c(O)c(=O)c(-c3nnc(Cc4ccc(F)cc4)s3)cn2N(C)C12CCC(C(=O)NC1CC1)CC2 (stereo not drawn) [Compound 96]
IC50 [1]: 8.63 nM | IC50 [5]: 16.2 nM | IC50 [2]: 171 nM

CCN1C(=O)c2c(O)c(=O)c(-c3nnc(Cc4ccc(F)cc4)s3)cn2N(C)C12CCC(CC(=O)N(C)C)CC2 (stereo not drawn) [Compound 97]
IC50 [5]: 23.4 nM | IC50 [2]: 133 nM

CCN1C(=O)c2c(O)c(=O)c(-c3nnc(Cc4ccc(F)cc4)s3)cn2N(C)C12CCC(CC(=O)N(C)C)CC2 (stereo not drawn) [Compound 98]
IC50 [6]: 32.2 nM | IC50 [4]: 168 nM

CCN1C(=O)c2c(O)c(=O)c(-c3nnc(Cc4ccc(F)cc4)s3)cn2N(C)C12CCC(CC(=O)N(C)C)C2 (stereo not drawn) [Compound 99]
IC50 [5]: 34.9 nM | IC50 [2]: 122 nM

CCN1C(=O)c2c(O)c(=O)c(-c3nnc(Cc4ccc(F)cc4F)s3)cn2N(C)C12CCC(C(=O)N(C)C)CC2 (stereo not drawn) [Compound 100]
IC50 [1]: 7.51 nM | IC50 [2]: 111 nM | IC50 [6]: 6.47 nM

CCN1C(=O)c2c(O)c(=O)c(-c3nnc(Cc4ccc(F)cc4F)s3)cn2N(C)C12CCC(C(=O)N(C)C)CC2 (stereo not drawn) [Compound 101]
IC50 [6]: 37.5 nM

CCN1C(=O)c2c(O)c(=O)c(-c3nnc(Cc4ccc(F)cc4F)s3)cn2N(C)C12CCC(C(=O)N(C)CC(F)(F)F)CC2 (stereo not drawn) [Compound 102]
IC50 [1]: 12.2 nM | IC50 [2]: 170 nM
